Experiments:
[1] = Solubility of the dye in toluene (concentration of toluene-saturated solution by HPLC); type: physicochemical
Protocol: To 101 mg of toluene, 3 mg of the dye (II-1) was added, and the resulting mixture was stirred at 80° C. for 5 minutes. The mixture was left to stand for 1 hour at room temperature. The resulting liquid mixture was filtered with a syringe equipped with a syringe filter (produced by Membrane Solutions Limited, PTFE13045, diameter: 0.45 μm). Hereby, a toluene-saturated solution of the dye (II-1) was prepared. The above solution was diluted with 767 mg of tetrahydrofuran, and the concentration of the solution was determined using HPLC (L-2300 Series produced by Hitachi High-Technologies Corporation). A 0.1-mass % tetrahydrofuran solution of the dye (II-1) was prepared, and a calibration curve was prepared at an absorption wavelength of 254 nm. Table 1 lists the results of measurement of the concentration of the toluene-saturated solution using the above calibration curve.

[2] = Solubility of the dye in cyclopentanone (concentration of cyclopentanone-saturated solution by HPLC); type: physicochemical
Protocol: To 103 mg of cyclopentanone, 3 mg of the dye (IV-1) was added, and the resulting mixture was stirred at 80° C. for 5 minutes. The mixture was left to stand for 1 hour at room temperature. The resulting liquid mixture was filtered with a syringe equipped with a syringe filter (produced by Membrane Solutions Limited, PTFE13045, diameter: 0.45 μm). Hereby, a cyclopentanone-saturated solution of the dye (IV-1) was prepared. The above solution was diluted with 746 mg of tetrahydrofuran, and the concentration of the solution was determined using HPLC (L-2300 Series produced by Hitachi High-Technologies Corporation). A 0.1-mass % tetrahydrofuran solution of the dye (IV-1) was prepared, and a calibration curve was prepared at an absorption wavelength of 254 nm. The concentration of the cyclopentanone-saturated solution was measured using the above calibration curve.

[3] = toluene-saturated solution, stirred at 80° C. 5 min, left 1 hour at room temperature, filtered, HPLC 254 nm
[4] = cyclopentanone-saturated solution, stirred at 80° C. 5 min, left 1 hour at room temperature, filtered, HPLC 254 nm

Compound | Solubility of the dye in toluene [1, 3] | Solubility of the dye in cyclopentanone [2, 4] | other results
CCN(CC)c1ccc(/N=N/c2ccc(/N=N/c3nc4sc(CCC(C)CC(C)(C)C)cc4s3)cc2)cc1 (centres unmarked) [II-1] | 0.5 mass % |  | 
CCN(CC)c1ccc(/N=N/c2ccc(/N=N/c3nc4sc(CCC(C)C)cc4s3)cc2)cc1 [II-2] | 0.7 mass % |  | Solubility of the dye in toluene ([1]; measured as for dye (II-1), detection absorption wavelength 254 nm): 0.7%
CCN(CC)c1ccc(/N=N/c2nc3sc(/N=N/c4ccc(OCCC(C)CC(C)(C)C)cc4)cc3s2)cc1 (centres unmarked) [II-3] |  | 0.3 mass % | Solubility of the dye in cyclopentanone ([2]; measured as for dye (IV-1), detection absorption wavelength 254 nm): 0.3%

The next lines start with results.

Solubility of the dye in toluene [1, 3] | Solubility of the dye in cyclopentanone [2, 4] | Compound | other results
 | 2.2 mass % | CCCCSc1nnc(/N=N/c2ccc(/N=N/c3ccc(N(CC)CC)cc3)cc2)s1 [IV-2] | 
 | 2.7 mass % | CCN(CC)c1ccc(/N=N/c2ccc(/N=N/c3sc(C)cc3C#N)cc2)cc1 [IV-3] | 
 | 1.8 mass % | CCN(CC)c1ccc(/N=N/c2ccc(/N=N/c3cc(C)ns3)cc2)cc1 [IV-4] | 

From US12049583B2, “Compound, composition for anisotropic dye films including the compound, anisotropic dye film, and optical element” (Mitsubishi Chemical Corporation, priority 2020, dated 2024)
